Measurements: patent US20250144067A1, “PERSONALIZED STARVATION THERAPY FOR CANCER” (Faeth Therapeutics, Inc., priority 2021, published 2025)
Structures can show the parent of a compound that is named as a salt. Where two headings read alike, the source gives them in different places. Peptide text beside a SMILES is read from it.

Legend:
[1] = test system: NCI-H292 lung cancer cells; experiment: FDA drug screening, complete media vs cholesterol-free media without statin (TABLE 1); type: cell-based, human
[2] = test system: NCI-H292 lung cancer cells; experiment: FDA drug screening, complete media vs cholesterol-free media with simvastatin (TABLE 2); type: cell-based, human
[3] = NCI-H292 cells, cholesterol-free media without statin, FDA drug library screen
[4] = NCI-H292 cells, complete media, FDA drug library screen
[5] = complete vs cholesterol-free media, >0 enhanced anti-cancer activity, about 0 neutral, <0 antagonist
[6] = NCI-H292 cells, cholesterol-free media with simvastatin 0.04 μM, cell growth value in FDA drug screen
[7] = NCI-H292 cells, complete media, cell growth value in FDA drug screen
[8] = complete media minus cholesterol-free media + simvastatin, >0 enhanced anti-cancer activity, about 0 neutral, <0 antagonist
[9] = NCI-H292 cells, cholesterol-free media without statin
[10] = complete vs cholesterol-free media, greater than 0 enhanced anti-cancer activity, about 0 neutral, below 0 antagonists
[11] = NCI-H292 cells, cholesterol-free media with simvastatin 0.04 μM, FDA drug library screen (TABLE 2)
[12] = NCI-H292 cells, complete media, FDA drug library screen (TABLE 2)
[13] = complete media minus cholesterol-free media + simvastatin (0.04 μM), >0 enhanced anti-cancer activity, about 0 neutral, <0 antagonist
[14] = Complete minus Cholesterol-free, >0 enhanced anti-cancer activity, about 0 neutral, <0 antagonist
[15] = NCI-H292 cells, FDA library drug in cholesterol-free media with simvastatin 0.04 μM
[16] = NCI-H292 cells, FDA library drug in complete media
[17] = complete media vs cholesterol-free media + simvastatin (0.04 μM), >0 enhanced anti-cancer activity, about 0 neutral, <0 antagonist
[18] = NCI-H292 cells, FDA drug library screen, complete media
[19] = complete vs cholesterol-free media, […]
[20] = NCI-H292 cells, FDA drug library screen, cholesterol-free media with simvastatin 0.04 μM
[21] = complete media vs cholesterol-free media + simvastatin (0.04 μM), […]
[22] = NCI-H292 cells, drug in cholesterol-free media with simvastatin 0.04 μM
[23] = NCI-H292 cells, drug in complete media

Compound: COCC1=C(C(=O)OC(C)OC(=O)OC(C)C)N2C(=O)[C@@H](NC(=O)/C(=N\OC)c3csc(N)n3)[C@H]2SC1 (some centres unmarked) [Cefpodoxime Proxetil]
- Cholesterol-free [1, 3]: 1.085
- Complete [1, 4]: 1.311
- Difference [1, 5]: 0.23
- Cholesterol-free media + simvastatin (0.04 μM) [2, 6]: 1.112
- Complete Media [2, 7]: 1.162
- Difference [2, 8]: 0.05

Compound: CCOC(=O)C1=C(C)NC(C)=C(C(=O)OC)C1c1cccc([N+](=O)[O-])c1 (centres unmarked) [Nitrendipine]
- Cholesterol-free [1, 9]: 1.587
- Complete ([1]; NCI-H292 cells, complete media): 1.208
- Difference [1, 10]: −0.38
- Cholesterol-free media + simvastatin (0.04 μM) [2, 11]: 1.103
- Complete Media [2, 12]: 1.042
- Difference [2, 13]: −0.06

Compound: COc1cc(NS(C)(=O)=O)ccc1Nc1c2ccccc2nc2ccccc12 [Amsacrine (hydrochloride)]
- Difference [1, 14]: 0.00
- Cholesterol-free [1, 3]: 0.2374
- Complete [1, 4]: 0.2416
- Cholesterol-free media + simvastatin (0.04 μM) [2, 15]: 0.8278
- Complete Media [2, 16]: 0.3873
- Difference [2, 17]: −0.44

Compound: Nc1ccn([C@@H]2O[C@H](CO)[C@@H](O)C2(F)F)c(=O)n1 [Gemcitabine]
- Difference [1, 14]: −0.03
- Cholesterol-free [1, 3]: 0.04572
- Complete [1, 4]: 0.01326
- Cholesterol-free media + simvastatin (0.04 μM) [2, 11]: 0.08143
- Complete Media [2, 12]: 0.09095
- Difference [2, 13]: 0.01

Compound: Deferoxamine (mesylate)
- Difference ([1]; Complete minus Cholesterol-free, greater than 0 enhanced anti-cancer activity, about 0 neutral, below 0 antagonist): −0.12
- Cholesterol-free ([1]; NCI-H292 cells, FDA drug library screen, cholesterol-free media without statin): 0.9976
- Complete [1, 18]: 0.8739
- Cholesterol-free media + simvastatin (0.04 μM) [2, 15]: 1.454
- Difference [2, 17]: −0.43

Compound: CC[C@H](C)[C@H](N)C1=N[C@H](C(=O)N[C@@H](CC(C)C)C(=O)N[C@H](CCC(=O)O)C(=O)N[C@H](C(=O)N[C@H]2CCCCNC(=O)[C@H](CC(N)=O)NC(=O)[C@@H](CC(=O)O)NC(=O)[C@H](Cc3cnc[nH]3)NC(=O)[C@@H](Cc3ccccc3)NC(=O)[C@H]([C@@H](C)CC)NC(=O)[C@@H](CCCN)NC2=O)[C@@H](C)CC)CS1 [Bacitracin] (HELM PEPTIDE1{[CC[C@H](C)[C@H](N)C1=N[C@H](C(=O)[*:2])CS1].L.[dE].I.K.[NCCC[C@@H](N[*:1])C(=O)[*:2]].I.[dF].H.[dD].N}$PEPTIDE1,PEPTIDE1,5:R3-11:R2$$$V2.0)
- Cholesterol-free [1, 9]: 1.42
- Complete ([1]; NCI-H292 cells, complete media): 1.094
- Difference [1, 19]: −0.33
- Cholesterol-free media + simvastatin (0.04 μM) [2, 20]: 0.9407
- Complete Media [2, 18]: 1.203
- Difference ([2]; complete media minus cholesterol-free media + simvastatin, […]): 0.26

Compound: CC1(C)C[C@@H]1C(=O)N/C(=C\CCCCSC[C@H](N)C(=O)O)C(=O)O [Cilastatin]
- Cholesterol-free [1]: 1.185
- Complete [1]: 0.8515
- Difference [1]: −0.33
- Cholesterol-free media + simvastatin (0.04 μM) [2]: 1.258
- Complete Media [2]: 0.85
- Difference [2]: −0.41

Compound: O=C(NCCN1CCOCC1)c1ccc(Cl)cc1 [Moclobemide]
- Difference [1, 14]: −0.27
- Cholesterol-free [1, 9]: 1.09
- Complete ([1]; NCI-H292 cells, complete media): 0.8213
- Cholesterol-free media + simvastatin (0.04 μM) [2, 11]: 0.9196
- Complete Media [2, 12]: 0.8957
- Difference [2, 13]: −0.02

Compound: CCOC(=O)CCC(=O)O[C@H]1[C@H](O[C@@H]2[C@@H](C)[C@H](O[C@H]3C[C@@](C)(OC)[C@@H](O)[C@H](C)O3)[C@@H](C)C(=O)O[C@H](CC)[C@@](C)(O)[C@H](O)[C@@H](C)C(=O)[C@H](C)C[C@@]2(C)O)O[C@H](C)C[C@@H]1N(C)C [Erythromycin Ethylsuccinate]
- Cholesterol-free [1, 9]: 1.248
- Complete ([1]; NCI-H292 cells, complete media): 0.8907
- Difference [1, 19]: −0.36
- Cholesterol-free media + simvastatin (0.04 μM) [2, 20]: 1.069
- Complete Media [2, 18]: 0.9797
- Difference [2, 21]: −0.09

Compound: CCOc1ccccc1OC(c1ccccc1)C1CNCCO1.CS(=O)(=O)O (centres unmarked) [Reboxetine (mesylate)]
- Cholesterol-free [1, 3]: 1.105
- Complete [1, 4]: 1.321
- Difference [1, 19]: 0.22
- Cholesterol-free media + simvastatin (0.04 μM) [2, 20]: 0.8624
- Complete Media [2, 18]: 0.7048
- Difference [2, 21]: −0.16

Compound: C[C@]12CC[C@@H]3c4ccc(O)cc4C[C@@H](CCCCCCCCC[S+]([O-])CCCC(F)(F)C(F)(F)F)[C@H]3[C@@H]1CC[C@@H]2O (some centres unmarked) [Fulvestrant]
- Difference [1, 14]: −0.29
- Cholesterol-free [1, 9]: 1.364
- Complete ([1]; NCI-H292 cells, complete media): 1.074
- Cholesterol-free media + simvastatin (0.04 μM) [2, 20]: 1.051
- Complete Media [2, 18]: 0.9579
- Difference [2, 17]: −0.09

Compound: N=C(N)NCCC[C@H](N)C(=O)O [L-Arginine]
- Cholesterol-free [1]: 0.984
- Complete [1]: 1.115
- Difference [1]: 0.13
- Cholesterol-free media + simvastatin (0.04 μM) [2]: 1.189
- Complete Media [2]: 1.484
- Difference [2]: 0.29

Compound: CCOC(=O)[C@@H](N)Cc1ccc(-c2cc(O[C@H](c3ccc(Cl)cc3-n3ccc(C)n3)C(F)(F)F)nc(N)n2)cc1 [Telotristat ethyl]
- Cholesterol-free [1, 9]: 1.253
- Complete ([1]; NCI-H292 cells, complete media): 0.9282
- Difference [1, 10]: −0.32
- Cholesterol-free media + simvastatin (0.04 μM) [2, 20]: 1.11
- Complete Media [2, 18]: 0.9913
- Difference [2, 17]: −0.12

Compound: COc1ccc(/C=C/C(=O)Nc2ccccc2C(=O)O)cc1OC [Tranilast]
- Difference [1, 14]: −0.27
- Cholesterol-free [1, 9]: 0.8255
- Complete ([1]; NCI-H292 cells, complete media): 0.5543
- Cholesterol-free media + simvastatin (0.04 μM) [2, 22]: 1.221
- Complete Media [2, 23]: 1.04
- Difference [2, 17]: −0.18

Compound: Gilteritinib hemifumarate
- Cholesterol-free [1, 3]: 0.3721
- Complete [1, 4]: 0.7198
- Difference [1, 19]: 0.35
- Cholesterol-free media + simvastatin (0.04 μM) [2, 15]: 0.9393
- Complete Media [2, 16]: 0.4057
- Difference [2, 21]: −0.53

Compound: CCN1CCN(C(=O)N[C@@H](C(=O)N[C@@H]2C(=O)N3C(C(=O)O)=C(CSc4nnnn4C)CS[C@H]23)c2ccc(O)cc2)C(=O)C1=O [Cefoperazone]
- Cholesterol-free [1, 3]: 0.8233
- Complete [1, 4]: 1.132
- Difference [1, 5]: 0.31
- Cholesterol-free media + simvastatin (0.04 μM) [2, 20]: 1.061
- Complete Media [2, 18]: 1.748
- Difference [2, 8]: 0.69

Compound: Nc1nc(=O)n([C@@H]2CS[C@H](CO)O2)cc1F [Emtricitabine]
- Cholesterol-free [1, 3]: 0.9457
- Complete [1, 4]: 1.235
- Difference [1, 5]: 0.29
- Cholesterol-free media + simvastatin (0.04 μM) [2, 6]: 1.347
- Complete Media [2, 7]: 1.442
- Difference [2, 8]: 0.09

Compound: COc1ccc(C(CN(C)C)C2(O)CCCCC2)cc1 (centres unmarked) [Venlafaxine (hydrochloride)]
- Cholesterol-free [1, 9]: 1.049
- Complete ([1]; NCI-H292 cells, complete media): 0.7326
- Difference [1, 19]: −0.32
- Cholesterol-free media + simvastatin (0.04 μM) [2, 15]: 1.551
- Complete Media [2, 16]: 1.023
- Difference [2, 21]: −0.53

Compound: CCCNC(C)C(=O)Nc1ccccc1C (centres unmarked) [Prilocaine]
- Difference ([1]; Complete minus Cholesterol-free, greater than 0 enhanced anti-cancer activity, about 0 neutral, below 0 antagonists): −0.49
- Cholesterol-free ([1]; NCI-H292 cells in cholesterol-free media without statin): 1.366
- Complete ([1]; NCI-H292 cells in complete media): 0.8796
- Cholesterol-free media + simvastatin (0.04 μM) [2, 22]: 1.231
- Complete Media [2, 23]: 0.9727
- Difference [2, 17]: −0.26

Compound: Nc1ccc(/N=N/c2ccccc2)c(N)n1 [Phenazopyridine (hydrochloride)]
- Difference [1, 14]: −0.06
- Cholesterol-free [1, 3]: 1.194
- Complete [1, 4]: 1.131
- Cholesterol-free media + simvastatin (0.04 μM) [2, 20]: 1.284
- Complete Media [2, 18]: 1.801
- Difference [2, 8]: 0.52

Compound: CCN(CC)CC(=O)Nc1c(C)cccc1C [Lidocaine (hydrochloride)]
- Difference [1, 14]: −0.22
- Cholesterol-free [1, 9]: 1.21
- Complete ([1]; NCI-H292 cells, complete media): 0.9883
- Cholesterol-free media + simvastatin (0.04 μM) [2, 11]: 0.8862
- Complete Media [2, 12]: 0.8646
- Difference [2, 13]: −0.02
